Results as given in US20030224942A1, “Alkylamino-1,3,5-triazines, processes for their preparation and their use as herbicides and plant growth regulators” (priority 2001, published 2003).

How the values were obtained:
[1] = tested on: Chenopodium spp., Papaver spp., Polygonum spp., Veronica spp. or Viola spp.; assay: Post-emergence effect on weeds (greenhouse pot test, visual scoring); type: in vivo, monocotyledonous and dicotyledonous weeds; conditions: treated at three-leaf stage; visual scoring after about 3 to 4 weeks; application rate of 0.5 kg and less of active substance per hectare
[2] = tested on: Cyperus spp., Echinochloa spp., Digitaria spp., Sagitaria spp. and Scirpus spp.; assay: Action on harmful plants in rice (paddy rice conditions, visual scoring); type: in vivo, typical rice weeds (gramineous and broad-leaved); conditions: applied into the dammed water, visual scoring about three weeks after application
Description: Transplanted and sown rice and also typical rice weeds (gramineous and broad-leaved) are cultivated in closed plastic pots in a greenhouse to the three-leaf stage (Echinochloa crus-galli 1.5-leaf) under paddy rice conditions (dammed height of water: 2-3 cm). This is followed by treatment with the compounds according to the invention. […] After this treatment, the test plants are set up in a greenhouse under optimum growth conditions and are maintained in this way throughout the test period.

SMILES | herbicidal activity post-emergence against harmful plants [1] | herbicidal activity against harmful plants which are typical for rice crops [2]
Cc1nc(N)nc(NCc2ccc(F)c(C(F)=C(F)F)c2)n1 [Product P1.5] | very good herbicidal activity | very good herbicidal activity
Cc1nc(N)nc(NCc2cc(F)c(C(F)=C(F)F)c(F)c2)n1 [Product P1.49] | very good herbicidal activity | very good herbicidal activity
C#Cc1cc(CNc2nc(C)nc(N)n2)ccc1F [Product P1.309] | very good herbicidal activity | very good herbicidal activity
C#Cc1c(F)cc(CNc2nc(C)nc(N)n2)cc1F [Product P1.352] | very good herbicidal activity | very good herbicidal activity
CC#Cc1cc(CNc2nc(C)nc(N)n2)ccc1F [Product P1.384] | very good herbicidal activity | very good herbicidal activity
CC#Cc1c(F)cc(CNc2nc(C)nc(N)n2)cc1F [Product P1.428] | very good herbicidal activity | very good herbicidal activity
Cc1nc(N)nc(NCc2ccc(F)c(C3CC3)c2)n1 [Product P1.916] | very good herbicidal activity | very good herbicidal activity
Cc1nc(N)nc(NCc2cc(F)c(C3CC3)c(F)c2)n1 [Product P1.960] | very good herbicidal activity | very good herbicidal activity
Cc1nc(N)nc(NCc2cccc(C(F)=C(F)F)c2)n1 [Product P1.1567] | very good herbicidal activity | very good herbicidal activity
Cc1nc(N)nc(NCc2ccc(C(F)=C(F)F)cc2)n1 [Product P1.1568] | very good herbicidal activity | very good herbicidal activity
C#Cc1cccc(CNc2nc(C)nc(N)n2)c1 [Product P1.1579] | very good herbicidal activity | very good herbicidal activity
C#Cc1ccc(CNc2nc(C)nc(N)n2)cc1 [Product P1.1580] | very good herbicidal activity | very good herbicidal activity
CC#Cc1cccc(CNc2nc(C)nc(N)n2)c1 [Product P1.1582] | very good herbicidal activity | very good herbicidal activity
CC#Cc1ccc(CNc2nc(C)nc(N)n2)cc1 [Product P1.1583] | very good herbicidal activity | very good herbicidal activity
Cc1nc(N)nc(NCc2cccc(C3CC3)c2)n1 [Product P1.1603] | very good herbicidal activity | very good herbicidal activity
Cc1nc(N)nc(NCc2ccc(C3CC3)cc2)n1 [Product P1.1604] | very good herbicidal activity | very good herbicidal activity

SMILES | herbicidal activity post-emergence against harmful plants [1] | herbicidal activity against harmful plants which are typical for rice crops [2]
Cc1nc(N)nc(NC(C)c2ccc(F)c(C(F)=C(F)F)c2)n1 (stereo not shown) [Product P2.5] | very good herbicidal activity | very good herbicidal activity
Cc1nc(N)nc(NC(C)c2cc(F)c(C(F)=C(F)F)c(F)c2)n1 (stereo not shown) [Product P2.49] | very good herbicidal activity | very good herbicidal activity
C#Cc1cc(C(C)Nc2nc(C)nc(N)n2)ccc1F (stereo not shown) [Product P2.309] | very good herbicidal activity | very good herbicidal activity
C#Cc1c(F)cc(C(C)Nc2nc(C)nc(N)n2)cc1F (stereo not shown) [Product P2.352] | very good herbicidal activity | very good herbicidal activity
CC#Cc1cc(C(C)Nc2nc(C)nc(N)n2)ccc1F (stereo not shown) [Product P2.384] | very good herbicidal activity | very good herbicidal activity
CC#Cc1c(F)cc(C(C)Nc2nc(C)nc(N)n2)cc1F (stereo not shown) [Product P2.428] | very good herbicidal activity | very good herbicidal activity
Cc1nc(N)nc(NC(C)c2ccc(F)c(C3CC3)c2)n1 (stereo not shown) [Product P2.916] | very good herbicidal activity | very good herbicidal activity
Cc1nc(N)nc(NC(C)c2cc(F)c(C3CC3)c(F)c2)n1 (stereo not shown) [Product P2.960] | very good herbicidal activity | very good herbicidal activity
Cc1nc(N)nc(NC(C)c2cccc(C(F)=C(F)F)c2)n1 (stereo not shown) [Product P2.1567] | very good herbicidal activity | very good herbicidal activity
Cc1nc(N)nc(NC(C)c2ccc(C(F)=C(F)F)cc2)n1 (stereo not shown) [Product P2.1568] | very good herbicidal activity | very good herbicidal activity
C#Cc1cccc(C(C)Nc2nc(C)nc(N)n2)c1 (stereo not shown) [Product P2.1579] | very good herbicidal activity | very good herbicidal activity
C#Cc1ccc(C(C)Nc2nc(C)nc(N)n2)cc1 (stereo not shown) [Product P2.1580] | very good herbicidal activity | very good herbicidal activity
CC#Cc1cccc(C(C)Nc2nc(C)nc(N)n2)c1 (stereo not shown) [Product P2.1582] | very good herbicidal activity | very good herbicidal activity
CC#Cc1ccc(C(C)Nc2nc(C)nc(N)n2)cc1 (stereo not shown) [Product P2.1583] | very good herbicidal activity | very good herbicidal activity
Cc1nc(N)nc(NC(C)c2cccc(C3CC3)c2)n1 (stereo not shown) [Product P2.1603] | very good herbicidal activity | very good herbicidal activity
Cc1nc(N)nc(NC(C)c2ccc(C3CC3)cc2)n1 (stereo not shown) [Product P2.1604] | very good herbicidal activity | very good herbicidal activity
